Laboratory results: patent publication US5070089A, “Therapeutic agent for liver disease and piperazine derivatives” (Nippon Chemiphar Co., Ltd., priority 1988, dated 1991)
Where two headings read alike, the source gives them in different places.

Tested on: acute liver disease caused by CCl4 (Wister-strain rat)
Experiment: Preventive action on deviation of GOT value and GPT value in vivo using model of acute liver disease caused by CCl4
Conditions: rat, 30 mg/kg, 3 hour before oral CCl4
Procedure: CCl4 in olive oil (concentration: 50%) was orally administered to a Wister-strain rat (body weight: 170-180 g) fasted for 24 hrs., at a dose of 1 ml/kg, to cause acute liver disease. […] For control group, 1.0% methylcellulose (MC) was administered in place of the piperazine derivative. For normal group, a simple olive oil was administered in place of the CCl4 -containing olive oil. For the administration, the piperazine derivative was employed in the form of a dispersion in aqueous MC solution (concentration: 1.0%). At 24 hours after the administration of CCl4, the rat was abdominally sectioned under ether anesthesia. From the abrominal large vein, a blood was collected. The collected blood was subjected to centrifugal separation at 3,000 r.p.m. for 10 min to obtain its plasma. […] The results are set forth in Table 4 in terms of a ratio (%) of suppression (prevention) of GOT or GPT. In Table 4, "***" means 90-100%, "**" means 60-90%, and "*" means 30-60%. The ratio of suppression is calculated according to the following equation. [formula]

[1] = plasma GOT at 24 hours after CCl4, read-out: ratio (%) of suppression (prevention) of GOT
[2] = plasma GPT at 24 hours after CCl4, read-out: ratio (%) of suppression (prevention) of GPT

Row | SMILES | inhibition in vivo at 30 mg/kg [1] [%] | inhibition in vivo at 30 mg/kg [2] [%]
1 | CSC(=S)N1CCN(Cc2ccccc2)CC1 [Compound 1] | 30 to 60 | 30 to 60
2 | CSC(=S)N1CCN(Cc2ccccc2Cl)CC1 [Compound 2, Methyl 4-(2-chlorobenzyl)-1-piperazinecarbodithioate] | 30 to 60 | –
3 | CSC(=S)N1CCN(Cc2ccccc2C)CC1 [Compound 3, Methyl 4-(2-methylbenzyl)-1-piperazinecarbodithioate] | 60 to 90 | 60 to 90
4 | COc1cccc(CN2CCN(C(=S)SC)CC2)c1 [Compound 6, Methyl 4-(3-methoxybenzyl)-1-piperazinecarbodithioate] | 90 to 100 | 90 to 100
5 | COc1ccc(CN2CCN(C(=S)SC)CC2)cc1 [Compound 7, Methyl 4-(4-methoxybenzyl)-1-piperazinecarbodithioate] | 60 to 90 | 30 to 60
6 | CSC(=S)N1CCN(Cc2ccccc2SC)CC1 [Compound 9, Methyl 4-(2-methylthiobenzyl)-1-piperazinecarbodithioate] | 60 to 90 | 60 to 90
7 | CSC(=S)N1CCN(Cc2ccccc2[N+](=O)[O-])CC1 [Compound 10, Methyl 4-(2-nitrobenzyl)-1-piperazinecarbodithioate] | 60 to 90 | 30 to 60
8 | CSC(=S)N1CCN(Cc2cccc(O)c2O)CC1 [Compound 15, Methyl 4-(2,3-dihydroxybenzyl)-1-piperazinecarbodithioate] | 90 to 100 | 90 to 100
9 | COc1cccc(CN2CCN(C(=S)SC)CC2)c1O [Compound 18, Methyl 4-(2-hydroxy-3-methoxybenzyl)-1-piperazinecarbodithioate] | 60 to 90 | 60 to 90
10 | COc1ccc(O)c(CN2CCN(C(=S)SC)CC2)c1 [Compound 20, Methyl 4-(2-hydroxy-5-methoxybenzyl)-1-piperazinecarbodithioate] | 60 to 90 | 60 to 90
11 | CSC(=S)N1CCN(Cc2cc(OC(C)=O)ccc2O)CC1 [Compound 21, Methyl 4-(5-acetoxy-2-hydroxybenzyl)-1-piperazinecarbodithioate] | 60 to 90 | 60 to 90
12 | COc1ccc(CN2CCN(C(=S)SC)CC2)cc1OC [Compound 31, Methyl 4-(3,4-dimethoxybenzyl)-1-piperazinecarbodithioate] | 60 to 90 | 30 to 60
13 | CSC(=S)N1CCN(Cc2ccc(OC(C)=O)c(OC(C)=O)c2OC(C)=O)CC1 [Compound 34, Methyl 4-(2,3,4-triacetoxybenzyl)-1-piperazinecarbodithioate] | – | 30 to 60
14 | COc1ccc(CN2CCN(C(=S)SC)CC2)c(O)c1OC [Compound 35, Methyl 4-(3,4-dimethoxy-2-hydroxybenzyl)-1-piperazinecarbodithioate] | 60 to 90 | 60 to 90
15 | COc1cc(O)c(CN2CCN(C(=S)SC)CC2)c(OC)c1 [Compound 37, Methyl 4-[(4,6-dimethoxy-2-hydroxy)benzyl]-1-piperazinecarbodithioate] | 60 to 90 | 60 to 90
16 | CSC(=S)N1CCN(Cc2c(C)c(O)c(C)c(C)c2O)CC1 [Compound 46, Methyl 4-[(2,5-dihydroxy-3,4,6-trimethyl)benzyl]-1-piperazinecarbodithioate] | 90 to 100 | 90 to 100
17 | COc1ccc(C(=O)N2CCN(C(=S)SC)CC2)c(OC)c1OC [Compound 56, Methyl 4-(2,3,4-trimethoxybenzoyl)-1-piperazinecarbodithioate] | 90 to 100 | 90 to 100
18 | COc1ccc(CCN2CCN(C(=S)SC)CC2)c(OC)c1OC [Compound 67, Methyl 4-{2-(2,3,4-trimethoxyphenyl)ethyl}-1-piperazinecarbodithioate] | 30 to 60 | 30 to 60
